In patent publication EP4796130A1, “ANTI-TISSUE FACTOR ANTIBODY-DRUG CONJUGATE COMPRISING CAMPTOTHECIN DERIVATIVE” (Celltrion, Inc., priority 2023, dated 2025):
“And” between values parts separate entries of the source, which are not always exact repeats. Identical values can stand only once.

How the values were obtained:
[1] = one mouse in G5 (3 mg/kg i.v. QW x 3 weeks); day 18 after start of treatment; autopsied, no abnormalities found
Source text: Animal body weights were regularly monitored as an indirect measure of toxicity. […]

[2] = test system: KYSE520 (human esophageal cancer xenograft model); test: In vivo antitumor efficacy, KYSE520 xenograft model; set-up: species or system BALB/c nude mice; settings: for Tumor Volume / Tumor Weights on Day 35: mean ± SEM; for T/Cweight / TGI: day 35 vs control group G1; for T/C: tumor volume on day 35 vs control group G1
[3] = test system: HPAFII (human pancreatic cancer xenograft model); test: In vivo antitumor efficacy, HPAFII xenograft model; set-up: species or system CB17 SCID mice; settings: for Tumor Volume / Tumor Weights on Day 28: mean ± SEM; for T/Cweight / TGI: day 28 vs control group G1; for T/C: tumor volume on day 28 vs control group G1
[4] = test system: MCF-7 (a breast cancer cell line); type: cell-based; settings: 6 days incubation

Tivdak: ADC in which MMAE is conjugated to Tisotumab; purchased from Jupiter Research Service LLC; DAR 4
body weight loss [1]: more than 20%
Tumor Volume ([2]; 1 mg/kg i.v. QW x 3 weeks, day 0): 175 ± 8 mm^3
Tumor Volume ([2]; 1 mg/kg i.v. QW x 3 weeks, day 4): 279 ± 20 mm^3
Tumor Volume ([2]; 1 mg/kg i.v. QW x 3 weeks, day 7): 360 ± 29 mm^3
Tumor Volume ([2]; 1 mg/kg i.v. QW x 3 weeks, day 11): 489 ± 37 mm^3
Tumor Volume ([2]; 1 mg/kg i.v. QW x 3 weeks, day 14): 672 ± 51 mm^3
Tumor Volume ([2]; 1 mg/kg i.v. QW x 3 weeks, day 18): 771 ± 64 mm^3
Tumor Volume ([2]; 1 mg/kg i.v. QW x 3 weeks, day 21): 865 ± 75 mm^3
Tumor Volume ([2]; 1 mg/kg i.v. QW x 3 weeks, day 25): 1,168 ± 101 mm^3
Tumor Volume ([2]; 1 mg/kg i.v. QW x 3 weeks, day 28): 1,497 ± 121 mm^3
Tumor Volume ([2]; 1 mg/kg i.v. QW x 3 weeks, day 32): 1,634 ± 126 mm^3
Tumor Volume ([2]; 1 mg/kg i.v. QW x 3 weeks, day 35): 1,893 ± 166 mm^3
T/Cweight ([2]; 1 mg/kg i.v. QW x 3 weeks): 86.67%
TGI ([2]; 1 mg/kg i.v. QW x 3 weeks): 13.03%
Tumor Weights on Day 35 ([2]; 1 mg/kg i.v. QW x 3 weeks): 1.869 ± 0.138 g
T/C ([2]; 1 mg/kg i.v. QW x 3 weeks): 88.03%
Tumor Volume ([2]; 3 mg/kg i.v. QW x 3 weeks, day 0): 175 ± 8 mm^3
Tumor Volume ([2]; 3 mg/kg i.v. QW x 3 weeks, day 4): 241 ± 23 mm^3
Tumor Volume ([2]; 3 mg/kg i.v. QW x 3 weeks, day 7): 279 ± 24 mm^3
Tumor Volume ([2]; 3 mg/kg i.v. QW x 3 weeks, day 11): 281 ± 31 mm^3
Tumor Volume ([2]; 3 mg/kg i.v. QW x 3 weeks, day 14): 270 ± 31 mm^3
Tumor Volume ([2]; 3 mg/kg i.v. QW x 3 weeks, day 18): 174 ± 17 mm^3
Tumor Volume ([2]; 3 mg/kg i.v. QW x 3 weeks, day 21): 154 ± 17 (n = 9)^c mm^3
Tumor Volume ([2]; 3 mg/kg i.v. QW x 3 weeks, day 25): 142 ± 15(n = 9) mm^3
Tumor Volume ([2]; 3 mg/kg i.v. QW x 3 weeks, day 28): 129 ± 16 (n = 9) mm^3
Tumor Volume ([2]; 3 mg/kg i.v. QW x 3 weeks, day 32): 115 ± 16(n = 9) mm^3
Tumor Volume ([2]; 3 mg/kg i.v. QW x 3 weeks, day 35): 99 mm^3 and 99 ± 14 (n = 9) mm^3 and 99 ± 14 mm^3
T/Cweight ([2]; 3 mg/kg i.v. QW x 3 weeks): 4.12%
TGI ([2]; 3 mg/kg i.v. QW x 3 weeks): 103.89%
Tumor Weights on Day 35 ([2]; 3 mg/kg i.v. QW x 3 weeks): 0.089 ± 0.013 g
T/C ([2]; 3 mg/kg i.v. QW x 3 weeks): 4.58%
Tumor Volume ([2]; 10 mg/kg i.v. QW x 3 weeks, day 0): 175 ± 8 mm^3
Tumor Volume ([2]; 10 mg/kg i.v. QW x 3 weeks, day 4): 243 ± 22 mm^3
Tumor Volume ([2]; 10 mg/kg i.v. QW x 3 weeks, day 7): 259 ± 24 mm^3
Tumor Volume ([2]; 10 mg/kg i.v. QW x 3 weeks, day 11): 234 ± 23 mm^3
Tumor Volume ([2]; 10 mg/kg i.v. QW x 3 weeks, day 14): 196 ± 16 mm^3
Tumor Volume ([2]; 10 mg/kg i.v. QW x 3 weeks, day 18): 122 ± 11 mm^3
Tumor Volume ([2]; 10 mg/kg i.v. QW x 3 weeks, day 21): 101 ± 7 mm^3
Tumor Volume ([2]; 10 mg/kg i.v. QW x 3 weeks, day 25): 88 ± 7 mm^3
Tumor Volume ([2]; 10 mg/kg i.v. QW x 3 weeks, day 28): 69 ± 5 mm^3
Tumor Volume ([2]; 10 mg/kg i.v. QW x 3 weeks, day 32): 58 ± 5 mm^3
Tumor Volume ([2]; 10 mg/kg i.v. QW x 3 weeks, day 35): 45 mm^3 and 45 ± 6 mm^3
T/Cweight ([2]; 10 mg/kg i.v. QW x 3 weeks): 1.93%
TGI ([2]; 10 mg/kg i.v. QW x 3 weeks): 106.62%
Tumor Weights on Day 35 ([2]; 10 mg/kg i.v. QW x 3 weeks): 0.042 ± 0.004 g
T/C ([2]; 10 mg/kg i.v. QW x 3 weeks): 2.08%
Tumor Volume ([3]; 0.3 mg/kg i.v. QW × 3, day 0): 235 ± 17 mm^3
Tumor Volume ([3]; 0.3 mg/kg i.v. QW × 3, day 4): 313 ± 34 mm^3
Tumor Volume ([3]; 0.3 mg/kg i.v. QW × 3, day 7): 361 ± 49 mm^3
Tumor Volume ([3]; 0.3 mg/kg i.v. QW × 3, day 11): 476 ± 64 mm^3
Tumor Volume ([3]; 0.3 mg/kg i.v. QW × 3, day 14): 576 ± 69 mm^3
Tumor Volume ([3]; 0.3 mg/kg i.v. QW × 3, day 18): 737 ± 91 mm^3
Tumor Volume ([3]; 0.3 mg/kg i.v. QW × 3, day 21): 934 ± 113 mm^3
Tumor Volume ([3]; 0.3 mg/kg i.v. QW × 3, day 25): 1,219 ± 141 mm^3
Tumor Volume ([3]; 0.3 mg/kg i.v. QW × 3, day 28): 1,607 ± 144 mm^3
T/Cweight ([3]; 0.3 mg/kg i.v. QW × 3): 68.36%
TGI ([3]; 0.3 mg/kg i.v. QW × 3): 35.24%
Tumor Weights on Day 28 ([3]; 0.3 mg/kg i.v. QW × 3): 1.461 ± 0.146 g
T/C ([3]; 0.3 mg/kg i.v. QW × 3): 68.29%
Tumor Volume ([3]; 1 mg/kg i.v. QW × 1, day 0): 235 ± 17 mm^3
Tumor Volume ([3]; 1 mg/kg i.v. QW × 1, day 4): 217 ± 16 mm^3
Tumor Volume ([3]; 1 mg/kg i.v. QW × 1, day 7): 141 ± 16 mm^3
Tumor Volume ([3]; 1 mg/kg i.v. QW × 1, day 11): 87 ± 9 mm^3
Tumor Volume ([3]; 1 mg/kg i.v. QW × 1, day 14): 103 ± 14 mm^3
Tumor Volume ([3]; 1 mg/kg i.v. QW × 1, day 18): 161 ± 31 mm^3
Tumor Volume ([3]; 1 mg/kg i.v. QW × 1, day 21): 213 ± 34 mm^3
Tumor Volume ([3]; 1 mg/kg i.v. QW × 1, day 25): 344 ± 49 mm^3
Tumor Volume ([3]; 1 mg/kg i.v. QW × 1, day 28): 486 mm^3 and 486 ± 73 mm^3
T/Cweight ([3]; 1 mg/kg i.v. QW × 1): 21.23%
TGI ([3]; 1 mg/kg i.v. QW × 1): 88.15%
Tumor Weights on Day 28 ([3]; 1 mg/kg i.v. QW × 1): 0.454 ± 0.088 g
T/C ([3]; 1 mg/kg i.v. QW × 1): 20.67%
Tumor Volume ([3]; 1 mg/kg i.v. QW × 3, day 0): 235 ± 17 mm^3
Tumor Volume ([3]; 1 mg/kg i.v. QW × 3, day 4): 190 ± 12 mm^3
Tumor Volume ([3]; 1 mg/kg i.v. QW × 3, day 7): 124 ± 11 mm^3
Tumor Volume ([3]; 1 mg/kg i.v. QW × 3, day 11): 85 ± 9 mm^3
Tumor Volume ([3]; 1 mg/kg i.v. QW × 3, day 14): 70 ± 8 mm^3
Tumor Volume ([3]; 1 mg/kg i.v. QW × 3, day 18): 54 ± 6 mm^3
Tumor Volume ([3]; 1 mg/kg i.v. QW × 3, day 21): 40 ± 4 mm^3
Tumor Volume ([3]; 1 mg/kg i.v. QW × 3, day 25): 33 ± 4 mm^3
Tumor Volume ([3]; 1 mg/kg i.v. QW × 3, day 28): 26 mm^3 and 26 ± 3 mm^3
T/Cweight ([3]; 1 mg/kg i.v. QW × 3): 1.03%
TGI ([3]; 1 mg/kg i.v. QW × 3): 109.91%
Tumor Weights on Day 28 ([3]; 1 mg/kg i.v. QW × 3): 0.022 ± 0.003 g
T/C ([3]; 1 mg/kg i.v. QW × 3): 1.09%
Tumor Volume ([3]; 3 mg/kg i.v. QW × 1, day 0): 235 ± 17 mm^3
Tumor Volume ([3]; 3 mg/kg i.v. QW × 1, day 4): 216 ± 19 mm^3
Tumor Volume ([3]; 3 mg/kg i.v. QW × 1, day 7): 128 ± 10 mm^3
Tumor Volume ([3]; 3 mg/kg i.v. QW × 1, day 11): 69 ± 8 mm^3
Tumor Volume ([3]; 3 mg/kg i.v. QW × 1, day 14): 56 ± 4 mm^3
Tumor Volume ([3]; 3 mg/kg i.v. QW × 1, day 18): 39 ± 3 mm^3
Tumor Volume ([3]; 3 mg/kg i.v. QW × 1, day 21): 30 ± 2 mm^3
Tumor Volume ([3]; 3 mg/kg i.v. QW × 1, day 25): 26 ± 2 mm^3
Tumor Volume ([3]; 3 mg/kg i.v. QW × 1, day 28): 19 mm^3 and 19 ± 1 mm^3
T/Cweight ([3]; 3 mg/kg i.v. QW × 1): 0.54%
TGI ([3]; 3 mg/kg i.v. QW × 1): 110.22%
Tumor Weights on Day 28 ([3]; 3 mg/kg i.v. QW × 1): 0.012 ± 0.001 g
T/C ([3]; 3 mg/kg i.v. QW × 1): 0.80%
IC50 [4]: 442 nM
